Data on 23 compounds can be found in publication PMC5706701, “Development of a homogenous high-throughput assay for inositol hexakisphosphate kinase 1 activity” (PLoS ONE, 2017).

Read-outs that look alike come from different tables or passages of the source.

The target of this test is T1, Human IP6K1 (Homo sapiens, UniProt Q92551).
T1 construct: GST (N, cleaved yes); made in house; host or cells: C43 E. coli, pGEX-6P-2
The test can be described thus: IP6K1 high-throughput screen of the Sigma LOPAC (ADP-Glo Max, single point).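 Also: final compound concentration 10µM in 5% DMSO.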 It counts as biochemical. For orientation: ADP-Glo first removes unused ATP, then detects ADP through luciferase.

Setting [1] is: LOPAC single-point screen, ADP-Glo Max raw signal per well.
Where [2] appears, read: LOPAC single-point screen, Z-score against plate average and StDev.
Where [3] appears, read: LOPAC single-point screen, Z-score from raw signal with plate average and StDev.
The mark [4] stands for this setting: LOPAC single-point screen, ADP-Glo Max luminescence raw signal per well.
Setting [5] is: LOPAC single-point screen, Z-score relative to plate average and StDev.
Setting [6] is: Sigma LOPAC single-point screen, ADP-Glo Max raw signal per well.
The mark [7] stands for this setting: Sigma LOPAC single-point screen, Z-score from plate average and StDev.

T1 sequence (Q92551 whole entry): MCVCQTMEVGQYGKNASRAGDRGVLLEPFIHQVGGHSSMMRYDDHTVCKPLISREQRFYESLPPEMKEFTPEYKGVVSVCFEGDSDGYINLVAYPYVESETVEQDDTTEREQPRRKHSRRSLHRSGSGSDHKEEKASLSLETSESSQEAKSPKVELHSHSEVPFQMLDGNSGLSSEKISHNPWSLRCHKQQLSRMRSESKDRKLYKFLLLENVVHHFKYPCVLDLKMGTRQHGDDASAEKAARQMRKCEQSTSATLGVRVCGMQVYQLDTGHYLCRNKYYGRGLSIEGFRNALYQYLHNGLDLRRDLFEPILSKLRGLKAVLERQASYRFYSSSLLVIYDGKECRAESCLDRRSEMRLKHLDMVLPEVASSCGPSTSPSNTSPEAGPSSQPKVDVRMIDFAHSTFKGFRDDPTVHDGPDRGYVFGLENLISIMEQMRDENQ

Turning to `Cl.O=C(O)C1CCCN(CCC=C(c2ccccc2)c2ccccc2)C1` (stereo not drawn) [SKF 89976A hydrochloride], under setting [1], the “Raw Signal” value stood at 57225. The Z-score under setting [2] was determined as 0.2334.
On to `CN(C)CCCCSC(=N)N.Cl.Cl` [SKF 91488 dihydrochloride], for which, under setting [1], the “Raw Signal” value turned out to be 55411. This compound also yielded a Z-score under setting [3] of -0.1191.
For `CN/C(=N\c1ccc(C2=NNC(=O)CC2C)cc1)NC#N` (stereo not drawn) [SKF 94836], under setting [1], the “Raw Signal” value is 55520. Further, the Z-score under setting [3] is given as -0.09788.
Consider `O=C(O)/C=C\C(=O)O.O=C(O)/C=C\C(=O)O.c1cc(CN2CCCCC2)cc(OCCCNc2nc3ccccc3s2)c1` [SKF 95282 dimaleate], for which the “Raw Signal” value under setting [1] stood at 54088. Under setting [3], this compound had a Z-score of -0.3761.
For `COc1ccc(CCCOC(Cn2ccnc2)c2ccc(OC)cc2)cc1` (stereo not drawn) [SKF 96365], under setting [1], the “Raw Signal” value is listed as 56420. Besides, under setting [2], the Z-score was found to be 0.07697.
As to `CP(=O)(O)CCCN.Cl` [SKF 97541 hydrochloride], the “Raw Signal” value under setting [1] is listed as 57179. Also, the Z-score under setting [3] was -0.1293.
On to `CCCC(C(=O)OCCN(CC)CC)(c1ccccc1)c1ccccc1.Cl` [SKF-525A hydrochloride], for which the “Raw Signal” value under setting [4] is listed as 51241. Under setting [5], this compound came in with a Z-score of -0.5297.
On to `C=CCN1C[C@H](C)N([C@H](c2ccc(C(=O)N(CC)CC)cc2)c2cccc(OC)c2)C[C@H]1C` [SNC80], for which the “Raw Signal” value under setting [1] is recorded as 54916. The compound also gave a Z-score under setting [3] of -0.2152.
Consider `Oc1c2ccccc2c2c3c(cccc13)N=N2` [SP600125], for which, under setting [6], the “Raw Signal” value is 57057. This compound registered a Z-score under setting [7] of 0.3838.
On to `Nc1ncnc2c1ncn2C1CCCO1` (stereo not drawn) [SQ 22536], for which, under setting [4], the “Raw Signal” value is reported as 63004. In addition, the Z-score (LOPAC single-point screen, Z-score from plate average and StDev) was 1.356.
Regarding `O=C(O)c1ccccc1Nc1cccc(OCc2ccc3ccccc3n2)c1` [SR 2640], under setting [4], the “Raw Signal” value worked out at 52929. Besides, the Z-score under setting [5] was -0.6013.
As for `Cl.NC1CCN(c2cccc(Cl)n2)CC1` [SR 57227A], the “Raw Signal” value under setting [4] was found to be 53376. Besides, the Z-score under setting [5] is recorded as -0.5144.
For the compound `CCc1ccccc1OC[C@@H](O)CN[C@H]1CCCc2ccccc21.O=C(O)C(=O)O` [SR 59230A oxalate], the “Raw Signal” value under setting [1] came out at 55204. Further, under setting [3], the Z-score is on record as -0.1593.
For the compound `Br.COc1ccc(-c2ccc(=N)n(CCCC(=O)O)n2)cc1` [SR-95531], the “Raw Signal” value was 59972 and the Z-score is listed as 0.7671.
For the compound `CN(C)c1ccc(/C=C2\C(=O)Nc3ccccc32)cc1` [SU 4312], under setting [6], the “Raw Signal” value worked out at 60273. In addition, the Z-score under setting [7] stood at 0.8255.
Consider `CN(C)S(=O)(=O)c1ccc2c(c1)/C(=C/c1cc3c([nH]1)CCCC3)C(=O)N2` [SU 6656], for which, under setting [1], the “Raw Signal” value was determined as 57564. Under setting [2], this compound returned a Z-score of 0.2992.
The compound `CC(C)(C)NCC(O)c1ccc(O)c(CO)c1` (stereo not drawn) [Salbutamol] registered a Z-score under setting [3] of -0.2712.
As to `OCc1cc(C(O)CNCCCCCCOCCCCc2ccccc2)ccc1O` (stereo not drawn) [Salmeterol], under setting [4], the “Raw Signal” value amounted to 52718. Also, the Z-score under setting [5] is listed as -0.6423.
For `CCCCCCCCCC[Si](C)(C)CCC(=O)NC(Cc1ccc(C)cc1)c1ccccc1` (stereo not drawn) [Sandoz 58-035], under setting [1], the “Raw Signal” value was found to be 56427. Moreover, the Z-score under setting [3] was -0.2617.
Turning to `C[n+]1cc2c3c(ccc2c2ccc4cc5c(cc4c21)OCO5)OCO3` [Sanguinarine chloride], the “Raw Signal” value under setting [4] stood at 52602. This compound showed a Z-score under setting [5] of -0.6648.
`C[Se]C[C@H](N)C(=O)O.Cl` [Se-(methyl)selenocysteine hydrochloride]: the “Raw Signal” value under setting [1] was 55528. The Z-score under setting [2] is 0.1906.
With `CC(C)[C@@H]1NC(=O)[C@H](CCCCN)NC(=O)[C@@H](Cc2c[nH]c3ccccc23)NC(=O)[C@H](Cc2ccc(O)cc2)NC(=O)[C@H](C)N(C)C(=O)[C@H](Cc2ccccc2)NC1=O` [Seglitide], the “Raw Signal” value under setting [1] came to 55030. Besides, under setting [3], the Z-score is recorded as -0.1931.
Turning to `Cl.NNC(N)=O` [Semicarbazide hydrochloride], the “Raw Signal” value under setting [1] came to 55828. For the same compound, the Z-score under setting [2] is given as -0.03804.
